Reference: publication PMC6437697 (Journal of Medicinal Chemistry, 2019)

Experiments:
Assay in all cases: KINOMEscan
Type in all cases: binding
Conditions in all cases: read-out: % control activity remaining
TESK1 = target: T1, TESK1 (Homo sapiens, UniProt Q15569)
T1 construct: purchased Eurofins DiscoverX KINOMEscan

[1] = target: T2, ABL1(E255K)-phosphorylated (Homo sapiens, UniProt P00519, E255K)
T2 construct: purchased Eurofins DiscoverX KINOMEscan

ACVRL1 = target: T3, ACVRL1 (Homo sapiens, UniProt P37023)
T3 construct: purchased Eurofins DiscoverX KINOMEscan

PCTK1 = target: T4, PCTK1 (Homo sapiens, UniProt Q00536)
T4 construct: purchased Eurofins DiscoverX KINOMEscan

GRK1 = target: T5, GRK1 (Homo sapiens, UniProt Q15835)
T5 construct: purchased Eurofins DiscoverX KINOMEscan
T5 sequence (Q15835 1-563): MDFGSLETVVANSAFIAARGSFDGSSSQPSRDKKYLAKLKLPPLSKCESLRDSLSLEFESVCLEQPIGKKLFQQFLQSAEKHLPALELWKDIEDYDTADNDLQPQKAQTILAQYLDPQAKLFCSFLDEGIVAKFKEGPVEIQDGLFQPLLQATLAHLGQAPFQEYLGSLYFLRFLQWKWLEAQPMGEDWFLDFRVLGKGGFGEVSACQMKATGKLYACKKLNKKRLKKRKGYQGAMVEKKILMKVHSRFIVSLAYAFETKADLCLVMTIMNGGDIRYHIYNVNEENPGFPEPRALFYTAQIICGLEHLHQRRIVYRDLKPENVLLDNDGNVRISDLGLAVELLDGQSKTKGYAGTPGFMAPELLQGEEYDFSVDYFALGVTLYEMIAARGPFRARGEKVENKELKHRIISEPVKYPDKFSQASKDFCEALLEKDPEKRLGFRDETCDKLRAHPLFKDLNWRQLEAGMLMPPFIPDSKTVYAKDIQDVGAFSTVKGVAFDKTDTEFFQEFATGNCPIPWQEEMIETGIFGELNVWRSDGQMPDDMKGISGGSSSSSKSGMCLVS

DMPK = target: T6, DMPK (Homo sapiens, UniProt Q09013)
T6 construct: purchased Eurofins DiscoverX KINOMEscan
T6 sequence (Q09013 1-629): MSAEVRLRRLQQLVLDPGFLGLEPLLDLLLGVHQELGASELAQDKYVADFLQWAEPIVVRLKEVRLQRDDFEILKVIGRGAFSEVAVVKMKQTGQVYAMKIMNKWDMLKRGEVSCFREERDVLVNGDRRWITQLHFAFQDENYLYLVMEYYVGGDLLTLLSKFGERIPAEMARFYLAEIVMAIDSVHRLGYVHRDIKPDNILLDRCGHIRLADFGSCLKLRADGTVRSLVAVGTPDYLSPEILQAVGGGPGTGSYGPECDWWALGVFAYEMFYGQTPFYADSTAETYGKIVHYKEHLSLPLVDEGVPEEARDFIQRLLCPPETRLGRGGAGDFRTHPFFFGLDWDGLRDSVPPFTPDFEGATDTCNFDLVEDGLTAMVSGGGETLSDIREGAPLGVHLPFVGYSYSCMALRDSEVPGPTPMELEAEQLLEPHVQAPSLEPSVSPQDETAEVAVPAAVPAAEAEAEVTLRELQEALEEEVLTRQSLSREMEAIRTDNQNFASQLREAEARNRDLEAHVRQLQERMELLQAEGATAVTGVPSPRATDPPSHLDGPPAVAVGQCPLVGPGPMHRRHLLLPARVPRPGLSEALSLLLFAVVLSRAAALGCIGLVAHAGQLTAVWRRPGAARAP

EGFR(G719S) = target: T7, EGFR(G719S) (Homo sapiens, UniProt P00533, G719S)
T7 construct: purchased Eurofins DiscoverX KINOMEscan

TRKB = target: T8, TRKB (Homo sapiens, UniProt Q16620)
T8 construct: purchased Eurofins DiscoverX KINOMEscan

EPHB4 = target: T9, EPHB4 (Homo sapiens, UniProt P54760)
T9 construct: purchased Eurofins DiscoverX KINOMEscan
T9 sequence (P54760 16-987): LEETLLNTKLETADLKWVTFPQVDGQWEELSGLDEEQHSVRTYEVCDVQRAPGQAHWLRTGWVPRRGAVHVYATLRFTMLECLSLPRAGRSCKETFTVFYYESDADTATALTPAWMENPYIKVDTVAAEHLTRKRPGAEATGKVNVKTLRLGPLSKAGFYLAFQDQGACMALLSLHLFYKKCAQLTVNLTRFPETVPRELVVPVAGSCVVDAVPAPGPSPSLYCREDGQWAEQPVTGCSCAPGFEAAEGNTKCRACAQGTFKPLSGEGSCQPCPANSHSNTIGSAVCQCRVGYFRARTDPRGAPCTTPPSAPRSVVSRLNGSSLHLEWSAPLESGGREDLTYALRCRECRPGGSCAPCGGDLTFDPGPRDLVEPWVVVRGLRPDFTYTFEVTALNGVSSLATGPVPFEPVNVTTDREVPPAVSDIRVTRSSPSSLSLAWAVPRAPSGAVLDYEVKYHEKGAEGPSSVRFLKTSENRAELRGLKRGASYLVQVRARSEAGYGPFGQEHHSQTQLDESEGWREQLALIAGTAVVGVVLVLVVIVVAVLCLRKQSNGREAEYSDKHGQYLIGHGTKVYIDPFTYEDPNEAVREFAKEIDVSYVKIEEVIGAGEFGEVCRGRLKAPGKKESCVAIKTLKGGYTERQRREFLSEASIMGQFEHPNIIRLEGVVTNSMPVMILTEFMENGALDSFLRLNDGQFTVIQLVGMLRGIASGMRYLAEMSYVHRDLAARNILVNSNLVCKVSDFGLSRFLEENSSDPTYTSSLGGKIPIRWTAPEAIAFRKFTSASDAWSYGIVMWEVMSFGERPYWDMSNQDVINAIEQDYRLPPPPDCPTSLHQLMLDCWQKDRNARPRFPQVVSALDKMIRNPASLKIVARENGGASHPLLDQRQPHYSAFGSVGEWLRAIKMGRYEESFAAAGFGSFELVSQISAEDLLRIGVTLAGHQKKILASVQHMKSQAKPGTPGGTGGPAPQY

T7 sequence (P00533 25-1210 G719S limits assumed): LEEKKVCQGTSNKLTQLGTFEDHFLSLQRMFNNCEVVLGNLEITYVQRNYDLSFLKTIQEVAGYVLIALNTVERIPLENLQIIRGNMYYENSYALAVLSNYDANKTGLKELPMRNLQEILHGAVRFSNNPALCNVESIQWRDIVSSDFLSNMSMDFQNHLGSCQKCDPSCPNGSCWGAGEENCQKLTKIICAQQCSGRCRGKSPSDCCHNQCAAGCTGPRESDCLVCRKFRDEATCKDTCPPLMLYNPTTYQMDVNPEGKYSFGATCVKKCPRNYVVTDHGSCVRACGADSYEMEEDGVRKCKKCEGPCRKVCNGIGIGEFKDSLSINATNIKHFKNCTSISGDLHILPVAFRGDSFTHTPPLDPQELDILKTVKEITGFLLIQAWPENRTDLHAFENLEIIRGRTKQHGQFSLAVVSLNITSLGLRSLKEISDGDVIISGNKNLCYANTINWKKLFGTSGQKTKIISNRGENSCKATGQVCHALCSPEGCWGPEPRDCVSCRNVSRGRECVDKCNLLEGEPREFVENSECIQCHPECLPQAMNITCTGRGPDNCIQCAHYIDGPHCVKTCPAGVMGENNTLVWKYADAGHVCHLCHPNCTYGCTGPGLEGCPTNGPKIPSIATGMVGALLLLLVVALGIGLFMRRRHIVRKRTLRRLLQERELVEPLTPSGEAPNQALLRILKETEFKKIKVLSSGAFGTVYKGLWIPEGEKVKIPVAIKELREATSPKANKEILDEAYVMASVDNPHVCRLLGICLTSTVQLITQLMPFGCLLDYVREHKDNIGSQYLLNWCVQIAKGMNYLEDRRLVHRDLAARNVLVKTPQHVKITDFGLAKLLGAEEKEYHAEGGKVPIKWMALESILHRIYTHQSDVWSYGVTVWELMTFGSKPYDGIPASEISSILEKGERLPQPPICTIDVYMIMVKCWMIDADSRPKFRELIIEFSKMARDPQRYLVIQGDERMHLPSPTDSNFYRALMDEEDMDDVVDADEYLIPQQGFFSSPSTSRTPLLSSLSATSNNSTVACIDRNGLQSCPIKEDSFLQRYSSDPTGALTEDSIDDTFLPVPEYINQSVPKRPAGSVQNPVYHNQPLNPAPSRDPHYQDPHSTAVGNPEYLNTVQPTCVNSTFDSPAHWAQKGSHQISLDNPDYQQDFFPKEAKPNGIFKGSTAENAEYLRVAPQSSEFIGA
T2 sequence (P00519 whole entry E255K): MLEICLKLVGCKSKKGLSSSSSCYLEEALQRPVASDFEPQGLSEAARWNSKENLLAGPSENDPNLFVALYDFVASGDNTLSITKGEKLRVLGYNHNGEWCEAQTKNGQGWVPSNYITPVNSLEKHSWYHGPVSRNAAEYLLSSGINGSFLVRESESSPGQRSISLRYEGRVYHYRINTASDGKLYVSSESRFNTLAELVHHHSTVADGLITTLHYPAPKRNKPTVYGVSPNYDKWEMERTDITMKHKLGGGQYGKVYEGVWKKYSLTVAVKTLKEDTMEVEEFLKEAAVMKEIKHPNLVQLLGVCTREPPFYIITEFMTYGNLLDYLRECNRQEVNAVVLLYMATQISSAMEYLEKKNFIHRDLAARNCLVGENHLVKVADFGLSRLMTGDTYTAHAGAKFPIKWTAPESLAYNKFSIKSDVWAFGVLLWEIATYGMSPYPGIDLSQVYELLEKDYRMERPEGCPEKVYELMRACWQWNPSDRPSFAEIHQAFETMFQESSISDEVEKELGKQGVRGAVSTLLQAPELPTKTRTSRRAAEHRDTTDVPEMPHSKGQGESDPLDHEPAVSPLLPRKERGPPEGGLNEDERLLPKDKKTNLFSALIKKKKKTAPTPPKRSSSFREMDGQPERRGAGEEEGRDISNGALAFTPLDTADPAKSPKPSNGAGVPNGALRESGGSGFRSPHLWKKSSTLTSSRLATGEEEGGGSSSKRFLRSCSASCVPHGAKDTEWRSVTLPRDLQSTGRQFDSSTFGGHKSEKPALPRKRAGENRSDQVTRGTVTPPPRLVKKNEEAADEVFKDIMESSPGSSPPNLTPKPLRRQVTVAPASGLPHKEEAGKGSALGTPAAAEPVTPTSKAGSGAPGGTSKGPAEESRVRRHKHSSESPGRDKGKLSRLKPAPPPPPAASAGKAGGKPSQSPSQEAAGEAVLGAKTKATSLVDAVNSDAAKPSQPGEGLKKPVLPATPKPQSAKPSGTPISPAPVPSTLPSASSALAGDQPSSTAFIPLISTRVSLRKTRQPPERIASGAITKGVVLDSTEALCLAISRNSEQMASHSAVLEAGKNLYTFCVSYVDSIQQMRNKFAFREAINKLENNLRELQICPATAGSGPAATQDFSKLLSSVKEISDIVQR
T8 sequence (Q16620 32-822): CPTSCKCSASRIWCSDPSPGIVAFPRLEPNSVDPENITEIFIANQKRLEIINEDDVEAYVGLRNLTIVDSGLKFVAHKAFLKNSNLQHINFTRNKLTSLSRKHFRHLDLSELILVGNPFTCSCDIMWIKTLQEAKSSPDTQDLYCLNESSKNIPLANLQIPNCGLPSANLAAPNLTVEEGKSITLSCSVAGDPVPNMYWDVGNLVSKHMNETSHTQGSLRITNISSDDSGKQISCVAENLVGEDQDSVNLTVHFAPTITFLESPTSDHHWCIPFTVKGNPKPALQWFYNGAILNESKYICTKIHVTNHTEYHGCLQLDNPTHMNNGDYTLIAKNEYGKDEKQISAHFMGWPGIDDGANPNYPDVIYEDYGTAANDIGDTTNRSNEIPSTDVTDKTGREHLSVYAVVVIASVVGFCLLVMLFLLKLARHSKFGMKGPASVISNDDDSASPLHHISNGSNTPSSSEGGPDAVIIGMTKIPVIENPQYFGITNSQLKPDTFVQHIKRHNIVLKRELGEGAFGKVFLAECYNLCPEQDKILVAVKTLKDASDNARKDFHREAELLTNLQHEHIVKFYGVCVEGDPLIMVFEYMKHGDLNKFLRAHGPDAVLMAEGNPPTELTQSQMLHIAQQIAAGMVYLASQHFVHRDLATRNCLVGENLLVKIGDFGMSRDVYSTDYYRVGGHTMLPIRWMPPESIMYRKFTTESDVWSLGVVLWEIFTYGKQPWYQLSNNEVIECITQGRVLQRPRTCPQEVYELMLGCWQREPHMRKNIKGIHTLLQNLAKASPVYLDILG
T4 sequence (Q00536 whole entry): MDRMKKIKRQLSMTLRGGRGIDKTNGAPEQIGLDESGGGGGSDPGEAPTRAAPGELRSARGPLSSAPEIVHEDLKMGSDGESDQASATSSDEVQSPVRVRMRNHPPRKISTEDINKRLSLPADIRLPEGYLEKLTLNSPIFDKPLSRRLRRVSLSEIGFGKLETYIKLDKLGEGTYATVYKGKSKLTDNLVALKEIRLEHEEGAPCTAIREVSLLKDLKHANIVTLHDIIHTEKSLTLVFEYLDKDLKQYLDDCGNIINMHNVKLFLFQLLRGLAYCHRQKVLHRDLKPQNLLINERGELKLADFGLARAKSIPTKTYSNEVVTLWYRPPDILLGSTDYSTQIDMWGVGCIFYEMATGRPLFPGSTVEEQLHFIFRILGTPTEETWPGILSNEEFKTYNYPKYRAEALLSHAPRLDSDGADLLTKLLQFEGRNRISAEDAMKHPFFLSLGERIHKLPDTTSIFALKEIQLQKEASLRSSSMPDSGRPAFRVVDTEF
T1 sequence (Q15569 whole entry): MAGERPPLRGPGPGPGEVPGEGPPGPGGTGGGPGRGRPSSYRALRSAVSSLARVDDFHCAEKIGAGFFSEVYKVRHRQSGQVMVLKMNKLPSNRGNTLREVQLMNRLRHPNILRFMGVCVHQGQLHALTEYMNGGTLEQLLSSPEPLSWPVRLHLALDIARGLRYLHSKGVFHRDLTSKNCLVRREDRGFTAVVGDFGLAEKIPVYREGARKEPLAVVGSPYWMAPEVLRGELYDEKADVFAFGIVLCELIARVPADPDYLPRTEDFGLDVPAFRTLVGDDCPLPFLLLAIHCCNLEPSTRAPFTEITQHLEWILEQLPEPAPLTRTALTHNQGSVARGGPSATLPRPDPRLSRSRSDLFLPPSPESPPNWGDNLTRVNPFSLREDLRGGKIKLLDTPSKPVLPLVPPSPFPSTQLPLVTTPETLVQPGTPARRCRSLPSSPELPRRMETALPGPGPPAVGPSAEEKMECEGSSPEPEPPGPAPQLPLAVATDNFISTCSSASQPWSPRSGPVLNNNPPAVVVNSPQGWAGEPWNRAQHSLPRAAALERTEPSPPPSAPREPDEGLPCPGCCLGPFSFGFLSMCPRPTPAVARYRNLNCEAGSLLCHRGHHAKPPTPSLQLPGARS
T3 sequence (P37023 22-503): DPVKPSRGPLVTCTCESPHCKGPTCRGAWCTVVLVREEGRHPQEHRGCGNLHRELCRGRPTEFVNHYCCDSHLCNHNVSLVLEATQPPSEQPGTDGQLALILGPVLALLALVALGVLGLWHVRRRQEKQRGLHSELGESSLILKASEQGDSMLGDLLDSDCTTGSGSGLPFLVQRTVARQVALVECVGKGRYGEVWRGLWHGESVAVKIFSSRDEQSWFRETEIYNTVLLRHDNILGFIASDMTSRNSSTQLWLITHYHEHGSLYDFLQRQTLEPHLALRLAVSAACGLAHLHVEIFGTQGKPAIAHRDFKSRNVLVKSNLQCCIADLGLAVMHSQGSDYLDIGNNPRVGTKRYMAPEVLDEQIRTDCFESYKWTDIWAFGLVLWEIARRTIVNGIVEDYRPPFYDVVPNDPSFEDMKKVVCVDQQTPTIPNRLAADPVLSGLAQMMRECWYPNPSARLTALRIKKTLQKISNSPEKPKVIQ

| Structure (SMILES) | remaining binding at 1 µM (TESK1) [%] | remaining binding at 1 µM [1] [%] | remaining binding at 1 µM (ACVRL1) [%] | remaining binding at 1 µM (PCTK1) [%] | remaining binding at 1 µM (GRK1) [%] | remaining binding at 1 µM (DMPK) [%] | remaining binding at 1 µM (EGFR(G719S)) [%] | remaining binding at 1 µM (TRKB) [%] | remaining binding at 1 µM (EPHB4) [%] |
| --- | --- | --- | --- | --- | --- | --- | --- | --- | --- |
| Clc1cc(NCC2CC2)c2ncc(-c3ccc4[nH]ncc4c3)n2n1 [compound 2, 6-Chloro-N-(cyclopropylmethyl)-3-(1H-indazol-5-yl)imidazo[1,2-b]pyridazin-8-amine] | 92 | 100 | 98 | 97 | 100 | 84 | 85 | 89 | 79 |
| O=C(CN1CCOCC1)N[C@H]1CC[C@H](Nc2cc(Cl)nn3c(-c4ccc5[nH]ncc5c4)cnc23)CC1 [compound 26] | 91 | 56 | 100 | 87 | 80 | 99 | 97 | 69 | 95 |
| CN1CCC(CNc2cc(Cl)nn3c(-c4cc5nc(Nc6ccccc6)[nH]c5cc4F)cnc23)CC1 [compound 31, 6-Chloro-3-(6-fluoro-2-(phenylamino)-1H-benzo[d]imidazol-5-yl)-N-((1-methylpiperidin-4-yl)methyl)imidazo[1,2-b]pyridazin-8-amine] | 100 | 86 | 100 | 37 | 82 | 89 | 71 | 91 | 100 |
